# Data published in patent US20160316790A1, “BETA-HINOKITIOL DERIVATIVES AND APPLICATIONS THEREOF IN PREPARATION OF ANIMAL ANTIBACTERIAL AGENTS AND ANTIBACTERIAL GROWTH PROMOTERS USED IN FEED” (GUANGZHOU INSIGHTER BIOTECHNOLOGY CO., LTD., priority 2013, published 2016).
# “And” between values parts separate entries of the source, which are not always exact repeats. Equal entries are not always repeated. Where two headings read alike, the source gives them in different places.
# Experiments:
# [1] = tested on: riemerella anatipestifer; test: Protection effect against attacking and infection of riemerella anatipestifer; settings: ducks, 5 × 10^7 CFU/bird, 7 days
# [2] = tested on: clostridium perfringens; test: microbe, parasite or virus in culture; assay type: cell-based
# [3] = Effect of β-hinokitiol derivatives on diarrhea of weaned pigs; assay type: in vivo
# From the text: 80 25-day-old weaned pigs were randomly divided into eight groups according to table 7, 10 pigs in each group. […] During the testing, the pigs ate food and drank water freely with temperature preservation. The test lasted for 10 days.
# [4] = tested on: staphylococcus aureus; test: Minimum inhibitory concentration in vitro, doubling dilutions; assay type: cell-based
# [5] = tested on: vibrio; test: as above; assay type: cell-based
# [6] = tested on: streptococcus; test: as above; assay type: cell-based
# [7] = tested on: salmonellas; test: as above; assay type: cell-based
# [8] = tested on: haemophilus parasuis; test: as above; assay type: cell-based; settings: Glaesserella parasuis
# [9] = tested on: escherichia coli; test: as above; assay type: cell-based
# [10] = tested on: riemerella anatipestifer; test: as above; assay type: cell-based
# [11] = tested on: major animal pathogenic bacteria; test: In vitro antibacterial activity (MICs), overall statement; assay type: cell-based; settings: Tables 1 to 4
# [12] = Application effect test of β-hinokitiol derivatives in broiler feeds; assay type: in vivo, fast-grown type yellow feather broilers; settings: 14 days; for Average daily weight gain / Average weight gain / Total consumption / feed conversion efficiency: broilers
# From the text: 598 fast-grown type yellow feather broilers (female) aged 30-days were divided into five groups according to table 5. […] During the test, the broilers ate food and drank water freely. The test lasted for 14 days. […] [table]
# [13] = read-out: Minimum inhibitory concentration (MIC), Clostridium JM1210B
# [14] = read-out: Minimum inhibitory concentration (MIC), Clostridium JM1212A
# [15] = weaned pigs, 30 ppm in diet, 10 days
# [16] = read-out: Minimum inhibitory concentration (MIC), Vibrio VP3
# [17] = read-out: Minimum inhibitory concentration (MIC), Vibrio VP5
# [18] = strain KP1307-1, read-out: Minimum inhibitory concentration (MIC), Streptococcus KP1307-1
# [19] = strain TS1205-2, read-out: Minimum inhibitory concentration (MIC), Streptococcus TS1205-2
# [20] = strain FS1303B, read-out: Minimum inhibitory concentration (MIC), Salmonellas FS1303B
# [21] = strain GD1303-3, read-out: Minimum inhibitory concentration (MIC), Salmonellas GD1303-3
# [22] = strain 2-3A, read-out: Minimum inhibitory concentration (MIC), Haemophilus parasuis 2-3A
# [23] = read-out: Minimum inhibitory concentration (MIC), Eserichia coli HZ1308-1
# [24] = read-out: Minimum inhibitory concentration (MIC), Eserichia coli SS1107A
# [25] = read-out: Minimum inhibitory concentration (MIC), Riemerella anatipestifer WS
# [26] = strain SCAU03, read-out: Minimum inhibitory concentration (MIC), Riemerella anatipestifer SCAU03
# [27] = read-out: Minimum inhibitory concentration (MIC), Staphylococcus aureus PNB14
# [28] = read-out: Minimum inhibitory concentration (MIC), Staphylococcus aureus SA10
# [29] = read-out: Minimum inhibitory concentration (MIC), Haemophilus parasuis S5A
# [30] = read-out: Minimum inhibitory concentration (MIC), Riemerella anatipestifer SCAU03
# [31] = strain WS, read-out: Minimum inhibitory concentration (MIC), Riemerella anatipestifer WS
compound,measurement,setting,value
"CO/N=C(\C(=O)N[C@@H]1C(=O)N2C(C(=O)O)=C(COC(C)=O)CS[C@H]12)c1csc(N)n1 [Cefotaxime, reference compound]",Death rate,[1]; 10 mg/kg weight intramuscular,0%
same,Morbidity,[1]; 10 mg/kg weight intramuscular,25%
"CC(C)c1cccc(=O)c(O)c1 [IST_001_002, 2-hydroxy-4-isopropyl-1-cycloheptatrienone, reference compound]",MIC,[2]; [13],6.25 µg/mL
same,MIC,[2]; [14],12.5 µg/mL
same,Average daily diarrhea rate,[3]; [15],35% and 32%
same,MIC,"[4]; strain PNB14, read-out: Minimum inhibitory concentration (MIC), Staphylococcus aureus PNB14",25 µg/mL
same,MIC,"[4]; strain SA10, read-out: Minimum inhibitory concentration (MIC), Staphylococcus aureus SA10",25 µg/mL
same,MIC,[5]; [16],25 µg/mL
same,MIC,[5]; [17],25 µg/mL
same,MIC,[6]; [18],50 µg/mL
same,MIC,[6]; [19],50 µg/mL
same,MIC,[7]; [20],25 µg/mL
same,MIC,[7]; [21],25 µg/mL
same,MIC,[8]; [22],0.78 µg/mL
same,MIC,[9]; [23],25 µg/mL
same,MIC,[9]; [24],25 µg/mL
same,MIC,[10]; [25],6.25 µg/mL
same,MIC,[10]; [26],25 µg/mL
"CCCc1cccc(=O)c(O)c1 [IST_009_001, 2-hydroxy-4-propylcyclohepta-2,4,6-trienone]",MIC,[2]; [13],3.13 µg/mL
same,MIC,[2]; [14],3.13 µg/mL
same,effect on diarrhea compared with colistin sulfate or IST_001_002 groups (in words),[3]; 30 ppm test group,obviously better than that of colistin sulfate or IST_001_002 groups
same,Average daily diarrhea rate,[3]; [15],16% and 17%
same,diarrhea rate of the tested pigs (in words),"[3]; weaned pigs, added in feeds, 10 days",could obviously reduce the diarrhea rate
same,Death rate,[1]; 10 mg/kg weight intramuscular,0%
same,Morbidity,[1]; 10 mg/kg weight intramuscular,40%
same,Death rate,[1]; 20 mg/kg weight intramuscular,0%
same,Morbidity,[1]; 20 mg/kg weight intramuscular,25%
same,antibacterial activities compared with the lead compound IST_001_002 (in words),[11],better than those of the lead compound IST_001_002
same,MIC,[4]; [27],12.5 µg/mL
same,MIC,[4]; [28],12.5 µg/mL
same,Average daily weight gain,[12]; 5 ppm mixed with feed,37.75 g/d * bird and 36.93 g/d * bird and 33.52 g/d * bird
same,Average weight gain,[12]; 5 ppm mixed with feed,516.79 g and 520.00 g and 547.21 g
same,Total consumption,[12]; 5 ppm mixed with feed,61 kg and 58.85 kg and 55.12 kg
same,feed conversion efficiency,[12]; 5 ppm mixed with feed,2.886 and 2.846 and 2.808
same,Average daily weight gain,[12]; 15 ppm mixed with feed,36.94 g/d * bird and 37.5 g/d * bird and 34.53 g/d * bird
same,Average weight gain,[12]; 15 ppm mixed with feed,517.17 g and 525.50 g and 523.38 g
same,Total consumption,[12]; 15 ppm mixed with feed,58.03 kg and 57.61 kg and 57.84 kg
same,feed conversion efficiency,[12]; 15 ppm mixed with feed,2.807 and 2.741 and 2.889
same,weight gain and feed conversion efficiency of the experimental broilers (in words),[12],could enhance the weight gain and the feed conversion efficiency
same,MIC,[5]; [16],12.5 µg/mL
same,MIC,[5]; [17],6.25 µg/mL
same,MIC,[6]; [18],25 µg/mL
same,MIC,[6]; [19],25 µg/mL
same,MIC,[7]; [20],6.25 µg/mL
same,MIC,[7]; [21],12.5 µg/mL
same,MIC,[8]; [29],0.2 µg/mL
same,MIC,[8]; [22],0.39 µg/mL
same,MIC,[9]; [23],12.5 µg/mL
same,MIC,[9]; [24],12.5 µg/mL
same,MIC,[10]; [30],12.5 µg/mL
same,MIC,[10]; [25],3.13 µg/mL
"CCCCCc1cccc(=O)c(O)c1 [IST_009_003, 2-hydroxy-4-pentylcyclohepta-2,4,6-trienone]",MIC,[2]; [13],6.25 µg/mL
same,MIC,[2]; [14],6.25 µg/mL
same,antibacterial activities compared with the lead compound IST_001_002 (in words),[11],better than those of the lead compound IST_001_002
same,Average daily weight gain,[12]; 40 ppm mixed with feed,36.21 g/d * bird and 34.19 g/d * bird and 37.14 g/d * bird
same,Average weight gain,[12]; 40 ppm mixed with feed,502.05 g and 449.90 g and 534.50 g
same,Total consumption,[12]; 40 ppm mixed with feed,58.05 kg and 57.71 kg and 58.17 kg
same,feed conversion efficiency,[12]; 40 ppm mixed with feed,2.862 and 2.952 and 2.868
same,weight gain and feed conversion efficiency of the experimental broilers (in words),[12],could enhance the weight gain and the feed conversion efficiency
same,MIC,[5]; [16],50 µg/mL
same,MIC,[5]; [17],25 µg/mL
same,MIC,"[6]; read-out: Minimum inhibitory concentration (MIC), Streptococcus KP1307-1",12.5 µg/mL
same,MIC,"[6]; read-out: Minimum inhibitory concentration (MIC), Streptococcus TS1205-2",12.5 µg/mL
same,MIC,[7]; [20],6.25 µg/mL
same,MIC,[7]; [21],12.5 µg/mL
same,MIC,[8]; [22],0.2 µg/mL
same,MIC,[9]; [23],6.25 µg/mL
same,MIC,[9]; [24],12.5 µg/mL
same,MIC,[10]; [30],12.5 µg/mL
same,MIC,[10]; [31],3.13 µg/mL
"CCCCCCCCc1cccc(=O)c(O)c1 [IST_009_030, 2-hydroxy-4-octylcyclohepta-2,4,6-trienone]",MIC,[2]; [13],25 µg/mL
same,MIC,[2]; [14],12.5 µg/mL
same,MIC,[4]; [27],12.5 µg/mL
same,MIC,[4]; [28],12.5 µg/mL
same,MIC,[5]; [16],> 100 µg/mL
same,MIC,[5]; [17],> 100 µg/mL
same,MIC,[6]; [18],25 µg/mL
same,MIC,[6]; [19],25 µg/mL
same,MIC,[7]; [20],25 µg/mL
same,MIC,[7]; [21],> 100 µg/mL
same,MIC,[8]; [29],0.39 µg/mL
same,MIC,[8]; [22],6.25 µg/mL
same,MIC,[9]; [23],25 µg/mL
same,MIC,[9]; [24],> 100 µg/mL
same,MIC,[10]; [30],12.5 µg/mL
same,MIC,[10]; [31],3.13 µg/mL
"CCCCCCCCCCCCCCc1cccc(=O)c(O)c1 [IST_009_033, 2-hydroxy-4-tetradecylcyclohepta-2,4,6-trienone]",MIC,[2]; [13],50 µg/mL
same,MIC,[2]; [14],50 µg/mL
same,MIC,[5]; [16],> 100 µg/mL
same,MIC,[5]; [17],> 100 µg/mL
same,MIC,[6]; [18],> 100 µg/mL
same,MIC,[6]; [19],> 100 µg/mL
same,MIC,[7]; [20],> 100 µg/mL
same,MIC,[7]; [21],> 100 µg/mL
same,MIC,[8]; [22],50 µg/mL
same,MIC,[9]; [23],> 100 µg/mL
same,MIC,[9]; [24],> 100 µg/mL
same,MIC,[10]; [26],100 µg/mL
same,MIC,[10]; [31],25 µg/mL
Colistin sulfate [reference compound],Average daily diarrhea rate,"[3]; weaned pigs, 60 ppm in diet, 10 days",30% and 33%
